Laboratory results: patent US7473688B2, “Indolobenzazepine HCV NS5B inhibitors” (Bristol-Myers Squibb Company, priority 2005, dated 2009)
Like-named read-outs stand apart in the source and are kept apart here.

What was measured:
HCV NS5B = molecular target: T1, HCV NS5B (Hepatitis C virus genotype 1b, UniProt Q9WMX2); experiment: HCV NS5B RdRp enzyme assay (preincubation protocol); type: biochemical
T1 construct: The protein was expressed with an 18 amino acid C-terminal truncation to enhance the solubility; made in house; host or cells: E. coli BL21 (DE3), pET21a
Experimental: HCV NS5B RdRp cloning, expression, and purification. The cDNA encoding the NS5B protein of HCV, genotype 1b, was cloned into the pET21a expression vector. The protein was expressed with an 18 amino acid C-terminal truncation to enhance the solubility. The E. coli competent cell line BL21 (DE3) was used for expression of the protein. Cultures were grown at 37° C. for ˜4 hours until the cultures reached an optical density of 2.0 at 600 nm. The cultures were cooled to 20° C. and induced with 1 mM IPTG. Fresh ampicillin was added to a final concentration of 50 μg/ml and the cells were grown overnight at 20° C.
Cell pellets (3L) were lysed for purification to yield 15-24 mgs of purified NS5B. The lysis buffer consisted of 20 mM Tris-HCl, pH 7.4, 500 mM NaCl, 0.5% triton X-100, 1 mM DTT, 1 mM EDTA, 20% glycerol, 0.5 mg/ml lysozyme, 10 mM MgCl2, 15 ug/ml deoxyribonuclease I, and Complete TM protease inhibitor tablets (Roche). After addition of the lysis buffer, frozen cell pellets were resuspended using a tissue homogenizer. To reduce the viscosity of the sample, aliquots of the lysate were sonicated on ice using a microtip attached to a Branson sonicator. The sonicated lysate was centrifuged at 100,000×g for 1 hr at 4° C. and filtered through a 0.2 μm filter unit (Corning).
The protein was purified using three sequential chromatography steps: Heparin sepharose CL-6B, polyU sepharose 4B, and Hitrap SP sepharose (Pharmacia). The chromatography buffers were identical to the lysis buffer but contained no lysozyme, deoxyribonuclease I, MgCl2 or protease inhibitor and the NaCl concentration of the buffer was adjusted according to the requirements for charging the protein onto the column. Each column was eluted with a NaCl gradient which varied in length from 5-50 column volumes depending on the column type. After the final chromatography step, the resulting purity of the enzyme is >90% based on SDS-PAGE analysis. The enzyme was aliquoted and stored at −80° C.
Standard HCV NS5B RdRp enzyme assay. HCV RdRp genotype 1b assays were run in a final volume of 60 μl in 96 well plates (Costar 3912). The assay buffer is composed of 20 mM Hepes, pH 7.5, 2.5 mM KCl, 2.5 mM MgCl2, 1 mM DTT, 1.6 U RNAse inhibitor (Promega N2515), 0.1 mg/ml BSA (Promega R3961), and 2% glycerol. All compounds were serially diluted (3-fold) in DMSO and diluted further in water such that the final concentration of DMSO in the assay was 2%. HCV RdRp genotype 1b enzyme was used at a final concentration of 28 nM. A polyA template was used at 6 nM, and a biotinylated oligo-dT12 primer was used at 180 nM final concentration. Template was obtained commercially (Amersham 27-4110). Biotinylated primer was prepared by Sigma Genosys. 3H-UTP was used at 0.6 μCi (0.29 μM total UTP). Reactions were initiated by the addition of enzyme, incubated at 30° C. for 60 min, and stopped by adding […] of 50 mM EDTA containing SPA beads (4 μg/μl, Amersham RPNQ 0007). Plates were read on a Packard Top Count NXT after >1 hr incubation at room temperature.
Modified HCV NS5B RdRp enzyme assay. A modified enzyme assay was performed essentially as described for the standard enzyme assay except for the following: The biotinylated oligo dT12 primer was precaptured on streptavidin-coated SPA beads by mixing primer and beads in assay buffer and incubating at room temperature for one hour. Unbound primer was removed after centrifugation. The primer-bound beads were resuspended in 20 mM Hepes buffer, pH 7.5 and used in the assay at final concentrations of […] primer and 0.67 μg/μl beads. Order of addition in the assay: Enzyme (14 nM) was added to diluted compound followed by the addition of a mixture of template (0.2 nM), 3H-UTP (0.6 μCi, 0.29 μM), and primer-bound beads, to initiate the reaction; concentrations given are final. Reactions were allowed to proceed for 4 hours at 30° C.
IC50 values for compounds were determined using seven different [I]. […]

HCV replicon = HCV replicon FRET assay; type: cell-based; conditions: Hepatitis C virus
From the text: FRET Assay Preparation. To perform the HCV FRET screening assay, 96-well cell culture plates were used. The FRET peptide (Anaspec, Inc.) (Taliani et al., Anal. Biochem. 1996, 240, 60-67) contains a fluorescence donor, EDANS, near one end of the peptide and an acceptor, DABCYL, near the other end. The fluorescence of the peptide is quenched by […] resonance energy transfer (RET) between the donor and the acceptor, but as the NS3 protease cleaves the peptide the products are released from RET quenching and the fluorescence of the donor becomes apparent. The assay reagent was made as follows: 5× cell Luciferase cell culture lysis reagent from Promega (#E153A) diluted to 1× with dH2O, NaCl added to 150 mM final, the FRET peptide diluted to 20 uM final from a 2 mM stock.
To prepare plates, HCV replicon cells, with or without a Renilla luciferase reporter gene, were trypsinized and placed into each well of a 96-well plate with titrated test compounds added in columns 3 through 12; columns 1 and 2 contained a control compound (HCV protease inhibitor), and the bottom row contained cells without compound. The plates were then placed in a CO2 incubator at 37° C.
Assays. Subsequent to addition of the test compounds described above (FRET Assay Preparation), at various times the plate was removed and Alamar blue solution (Trek Diagnostics, #00-100) was added per well as a measure of cellular toxicity. After reading in a Cytoflour 4000 instrument (PE Biosystems), plates were rinsed with PBS and then used for FRET assay by the addition of 30 ul of the FRET peptide assay reagent described above (FRET Assay Preparation) per well. The plate was then placed into the Cytoflour 4000 instrument which had been set to 340 excite/490 emission, automatic mode for 20 cycles and the plate read in a kinetic mode. Typically, the signal to noise using an endpoint analysis after the reads was at least three-fold. Alternatively, after Alamar blue reading, plates were rinsed with PBS, 50 ul of DMEM (high glucose) without phenol red was added and plates were then used for luciferase assay using the Promega Dual-Glo Luciferase Assay System.
Compound analysis was determined by quantification of the relative HCV replicon inhibition and the relative cytotoxicity values. To calculate cytoxicity values, the average Alamar Blue fluorescence signals from the control wells were set as 100% non-toxic. The individual signals in each of the compound test wells were then divided by the average control signal and multiplied by 100% to determine […]. To calculate the HCV replicon inhibition values, an average background value was obtained from the two wells containing the highest amount of HCV protease inhibitor at the end of the assay period. These numbers were similar to those obtained from naïve Huh-7 cells.
The background numbers were then subtracted from the average signal obtained from the control wells and this number was used as 100% activity. The individual signals in each of the compound test wells were then divided by the averaged control values after background subtraction and multiplied by 100% to determine percent activity. EC50 values for a protease inhibitor titration were calculated as the concentration which caused a 50% reduction in FRET or luciferase activity. The two numbers generated for the compound plate, percent cytoxicity and percent activity were used to determine compounds of interest for further analysis.

[1] = Table 1, FRET assay, read-out: EC50*

T1 sequence (Q9WMX2 2420-2992): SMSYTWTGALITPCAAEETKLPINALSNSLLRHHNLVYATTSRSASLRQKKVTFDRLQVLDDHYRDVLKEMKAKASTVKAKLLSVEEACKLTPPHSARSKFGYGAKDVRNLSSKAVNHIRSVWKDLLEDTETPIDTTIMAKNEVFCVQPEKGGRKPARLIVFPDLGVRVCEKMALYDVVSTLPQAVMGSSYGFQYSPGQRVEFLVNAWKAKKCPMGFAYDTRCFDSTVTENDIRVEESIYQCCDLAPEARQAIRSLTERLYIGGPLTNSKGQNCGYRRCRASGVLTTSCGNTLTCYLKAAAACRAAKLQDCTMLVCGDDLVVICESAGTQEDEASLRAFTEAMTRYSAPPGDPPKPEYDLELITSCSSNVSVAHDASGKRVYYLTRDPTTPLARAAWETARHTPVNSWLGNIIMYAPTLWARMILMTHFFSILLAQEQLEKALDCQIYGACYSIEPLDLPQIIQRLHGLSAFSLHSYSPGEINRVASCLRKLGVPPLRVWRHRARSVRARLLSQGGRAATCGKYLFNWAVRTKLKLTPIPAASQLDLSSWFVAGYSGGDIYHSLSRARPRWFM

SMILES	IC50 (HCV NS5B; Table 1, read-out: IC50*) [nM]	EC50 (HCV replicon; [1]) [nM]	further results
O=C(O)C1=Cc2ccccc2-c2c(C3CCCCC3)c3ccc(C(=O)NS(=O)(=O)N4CCOCC4)cc3n2C1	10 to 1000	> 10000	
COc1ccc(S(=O)(=O)NC(=O)c2ccc3c(C4CCCCC4)c4n(c3c2)CC(C(=O)N2CCOCC2)=Cc2ccccc2-4)cc1	10 to 1000	70 to 1000	
O=C(NS(=O)(=O)N1CCOCC1)c1ccc2c(C3CCCCC3)c3n(c2c1)CC(C(=O)N1CCN(C(=O)CO)CC1)=Cc1ccccc1-3	10 to 1000	70 to 1000	
COc1ccc2c(c1)C=C(C(=O)N1CCOCC1)Cn1c-2c(C2CCCCC2)c2ccc(C(=O)NS(=O)(=O)N3CCN(C)CC3)cc21	10 to 1000	70 to 1000	
C[C@@H]1CN(C(=O)C2=Cc3ccccc3-c3c(C4CCCCC4)c4ccc(C(=O)NS(=O)(=O)N5CCN(C)CC5)cc4n3C2)C[C@H](C)O1	10 to 1000	70 to 1000	
COC(=O)c1ccc2c(C3CCCCC3)c3n(c2c1)CC(C(=O)Nc1nccs1)=Cc1ccccc1-3		1000 to 10000	
COC(=O)c1ccc2c(C3CCCCC3)c3n(c2c1)CC(C(=O)N1CCC(N2C(=O)Cc4ccccc42)CC1)=Cc1ccccc1-3		1000 to 10000	
COC(=O)c1ccc2c(C3CCCCC3)c3n(c2c1)CC(C(=O)N1CCC(NC(C)=O)CC1)=Cc1ccccc1-3		1000 to 10000	
O=C(O)c1ccc2c(C3CCCCC3)c3n(c2c1)CC(C(=O)N1CCC2(CC1)OCCO2)=Cc1ccccc1-3			IC50 (HCV NS5B; IC50*, Table 1): 10 to 1000 nM; EC50 (HCV replicon): 70 to 1000 nM
CN(C)S(=O)(=O)NC(=O)c1ccc2c(C3CCCCC3)c3n(c2c1)CC(C(=O)N1CCC2(CC1)OCCO2)=Cc1ccccc1-3			IC50 (HCV NS5B; IC50*, Table 1): 10 to 1000 nM; EC50 (HCV replicon): 70 to 1000 nM
COC(=O)c1ccc2c(C3CCCCC3)c3n(c2c1)CC(C(=O)N1CCC(N2CCOCC2)CC1)=Cc1ccc(Cl)cc1-3		1000 to 10000	
CN(C)S(=O)(=O)NC(=O)c1ccc2c(C3CCCCC3)c3n(c2c1)CC(C(=O)N1CCC(=O)CC1)=Cc1ccccc1-3			IC50 (HCV NS5B; IC50*, Table 1): 10 to 1000 nM; EC50 (HCV replicon): 70 to 1000 nM
COC(=O)c1ccc2c(C3CCCCC3)c3n(c2c1)CC(C(=O)N1CC[C@@H](F)C1)=Cc1ccccc1-3		> 370	
COC(=O)c1ccc2c(C3CCCCC3)c3n(c2c1)C/C(=N/O)Cc1ccccc1-3		> 10000	
COC(=O)c1ccc2c(C3CCCCC3)c3n(c2c1)CC(C(=O)NCC=O)=Cc1cc(OC)ccc1-3			IC50 (HCV NS5B; Table 1b, read-out: IC50*): 20 to 1000 nM
COC(=O)c1ccc2c(C3CCCCC3)c3n(c2c1)CC(C(=O)N1CCOC(CO)C1)=Cc1cc(F)ccc1-3 (stereo not shown)			IC50 (HCV NS5B; Table 1b, read-out: IC50*): 20 to 1000 nM
COC(=O)c1ccc2c(C3CCCCC3)c3n(c2c1)CC(C(=O)N[C@@H]1C2CCC(C)([C@@H]1O)C2(C)C)=Cc1cc(OC)ccc1-3 (stereo partly shown)			IC50 (HCV NS5B; Table 1b, read-out: IC50*): > 12500 nM
COc1ccc2c(c1)C=C(C(=O)N1C[C@@H](C)N(C(C)C)[C@@H](C)C1)Cn1c-2c(C2CCCCC2)c2ccc(C(=O)NS(=O)(=O)N(C)C)cc21			IC50 (HCV NS5B; Table 1b, read-out: IC50*): 20 to 1000 nM
CN(C)S(=O)(=O)NC(=O)c1ccc2c(C3CCCCC3)c3n(c2c1)CC(C(=O)N1CCC(F)CC1)=Cc1ccccc1-3 [drawing 74]	10 to 1000		
CON(C)S(=O)(=O)NC(=O)c1ccc2c(C3CCCCC3)c3n(c2c1)CC(C(=O)N1CCOCC1)=Cc1ccccc1-3 [drawing 90]	10 to 1000		
CN(C)S(=O)(=O)NC(=O)c1ccc2c(C3CCCCC3)c3n(c2c1)CC(C(=O)N1CCC(N2CCOCC2)CC1)=Cc1cc(OCc2ccccc2)ccc1-3 [drawing 139]	10 to 1000		
C[C@@H]1CN(CCNC(=O)C2=Cc3ccccc3-c3c(C4CCCCC4)c4ccc(C(=O)NS(=O)(=O)N(C)C)cc4n3C2)C[C@H](C)O1 [drawing 148]	10 to 1000		
C[C@@H]1CN(C(=O)NC2Cc3ccccc3-c3c(C4CCCCC4)c4ccc(C(=O)O)cc4n3C2)C[C@H](C)O1 (stereo partly shown) [drawing 151]	10 to 1000		
CN(C)S(=O)(=O)NC(=O)c1ccc2c(C3CCCCC3)c3n(c2c1)CC(NC(=O)N1CCOCC1)Cc1ccccc1-3 (stereo not shown) [drawing 153]	10 to 1000		
CN(C)S(=O)(=O)NC(=O)c1ccc2c(C3CCCCC3)c3n(c2c1)CC(NC(=O)N1CCOCC1)Cc1ccccc1-3 (stereo not shown) [drawing 155]	10 to 1000		
CC(=O)NN(C)C(=O)C1=Cc2ccccc2-c2c(C3CCCCC3)c3ccc(C(=O)O)cc3n2C1 [drawing 156]	10 to 1000		
O=C(NCc1cnn[nH]1)c1ccc2c(C3CCCCC3)c3n(c2c1)CC(C(=O)N1CCC(N2CCOCC2)CC1)=Cc1ccccc1-3 [drawing 204]	10 to 1000		
COc1ccc2c(c1)C[C@@H](C(=O)N1CCC[C@H](OC(C)=O)C1)Cn1c-2c(C2CCCCC2)c2ccc(C(=O)NS(=O)(=O)N(C)C)cc21 [drawing 320]			IC50 (HCV NS5B; Table 1a, read-out: IC50*): 10 to 1000 nM
COc1ccc2c(c1)C[C@@H](C(=O)N1CCC[C@H](OC(C)=O)C1)Cn1c-2c(C2CCCCC2)c2ccc(C(=O)NS(=O)(=O)N(C)C)cc21 [drawing 326]			IC50 (HCV NS5B; Table 1a, read-out: IC50*): 10 to 1000 nM
